The target of experiment [1] is T1, α-Glucosidase from Saccharomyces cerevisiae (Saccharomyces cerevisiae, UniProt P53341).
T1 construct: purchased Sigma-Aldrich G003
Kind of experiment: α-Glucosidase inhibition (pNPG colorimetric). It counts as biochemical. The procedure: α-Glucosidase from Saccharomyces cerevisiae (Sigma-Aldrich, St. Louis, MO, USA cat#G003) was used in this assay. Solutions of the different compounds were prepared in 1000 µM final concentrations in dimethyl sulfoxide (DMSO). Compounds that exceeded 50% inhibition at this concentration were serially diluted to determine their half-maximal inhibitory concentration (IC50).
Briefly, 25 μL of samples/blank were incubated for 10 min at 37 °C with 50 μL of α-glucosidase (0.6 U/mL) in phosphate buffer (0.1 M, pH 7) in 96-microwell plates. The mixture was then incubated at 37 °C for 5 min with 25 μL of 3 mM pNPG in phosphate buffer (pH 7). A microplate reader (TECAN, Männedorf, Switzerland) was used to measure p-nitrophenol release from pNPG substrate at 405 nm to determine enzyme activity. Then, % α-glucosidase inhibition was estimated.

For experiment [2], the system named is advanced glycation end products (AGEs) formation, BSA-fructose model. Kind of experiment: AGEs formation inhibition, BSA-fructose assay. The format is biochemical. To be noted: AGEs fluorescence, 72 h, 37 °C; read-out: BSA-Fructose Model IC50 (Mean ± SE). On the procedure:
(§1) The isolated compounds were prepared at final concentrations of 500 µM in DMSO in the BSA-fructose assay, and 1000 µM in all other AGEs assays. Compounds that exceeded 50% inhibition at this concentration were serially diluted to determine their IC50. All tests were conducted using quercetin (positive control).
According to the previous report, the inhibition test for AGE formation was assessed using the BSA-fructose model. Briefly, BSA (50 mg/mL) and fructose (1.25 M) (in 200 mM phosphate buffer, pH 7.4, with 0.02% sodium azide) were incubated with Sample/blank in the dark for 72 h at 37 °C, (1:1:1 by volume). On a microplate reader (Fluostar Omega BMG Labtech, Ortenberg, Germany), fluorescent AGEs were detected using excitation and emission wavelengths of 355 nm and 460 nm, respectively. Triplicates of all experiments were performed, and the percentage of AGEs inhibition was calculated.

For experiment [3], the system named is advanced glycation end products (AGEs) formation, BSA-methylglyoxal model. Kind of experiment: AGEs formation inhibition, BSA-methylglyoxal assay. The format is biochemical. To be noted: AGEs fluorescence, 72 h, 37 °C; read-out: BSA-Methylglyoxal Model IC50 (Mean ± SE). The procedure:
as §1
AGEs inhibitory activity of the isolated compounds was determined according to the reported procedures with slight modification. Briefly, in black 96-microwell plates, samples were incubated for 72 h at 37 °C in the dark with bovine serum albumin (BSA, 50 mg/mL) (in 200 mM phosphate buffer, pH 7.4, with 0.02% sodium azide) and methyl-glyoxal (53.3 mM, in distilled water), (1:1:1 v/v/v). On a microplate reader (Fluostar Omega/BMG Labtech/Germany), fluorescent AGEs were detected using excitation and emission wavelengths of 355 nm and 460 nm, respectively. Triplicates of all experiments were performed.

Experiment [4] in a line: Ferric reducing antioxidant power (FRAP) assay. To be noted: ascorbic acid equivalents; mean ± SD, n = 3. The procedure: Isolated compounds were dissolved in DMSO to prepare a 0.5 mg/mL concentration, meanwhile, the positive control (ascorbic acid) was used to prepare a stock solution of 1000 µM in water; from which seven concentrations were prepared including 15.625, 31.25, 62.5, 125, 250 and 500 µM to construct the dose-response curve. The method of the assay depends on the reduction of Fe^3+ to Fe^2+, which is chelated by 2,4,6-tris(2-pyridyl)-s-triazine (TPTZ) to form Fe^2+-TPTZ complex which is known as FRAP (ferric reducing antioxidant power). Briefly, 190 μL of FRAP reagent (300 mM sodium acetate buffer pH 3.6, 10 mM TPTZ, and 20 mM ferric chloride, (10:1:1)) was incubated in the dark with 10 μL of the isolated compound in a 96-well plate for 30 min at 37 °C and absorbance was determined at 620 nm using microplate reader (Tecan, San Jose, CA, USA). Data are represented as means (n = 3) ± SD and the antioxidant effect of the extract was calculated as µM Ascorbic acid equivalents by substitution in the linear regression equation (Supplementary Figure S3).

The nature of experiment [5]: Oxygen radical absorbance capacity (ORAC) assay. To be noted: Trolox equivalents. The procedure:
Isolated compounds were dissolved in DMSO to prepare a concentration of 0.25 mg/mL, meanwhile, the positive control (Trolox) was used to prepare a stock solution of 1 mM in MeOH; from which nine concentrations were prepared including 400, 300, 200, 150, 100, 75, 50, 25, and 12.5 µM to construct the dose-response curve. The assay was carried out as previously reported, with minor modifications. Briefly, 12.5 µL of the prepared sample(s) were incubated with 75 µL fluoresceine (10 nM) for 30 min at 37 °C. Measuring fluorescence was performed (520 EM, 485 EX, nm) for 3 cycles (90 s cycle time) for background measurement (Supplementary Figure S5). Subsequently, to each well, freshly-made AAPH (2,2′-azobis(2-amidinopropane) dihydrochloride) (12.5 µL, 240 mM) was immediately added. Measuring fluorescence (520 EM, 485 EX, nm) was maintained (90 s × 85 cycles) for 2.5 h (Supplementary Figure S5). The antioxidant potential (µM trolox equivalents) was estimated by substituting in the linear-regression equation.

Setting [6] is: Saccharomyces cerevisiae enzyme, pNPG substrate, read-out: α-Glucosidase assay IC50 (Mean ± SE).

Where “and” joins values, the source holds several entries; their conditions need not be identical. Identical values can stand only once. Like-named read-outs stand apart in the source and are kept apart here. Bounds are passed on as bounds.

T1 sequence (P53341 whole entry): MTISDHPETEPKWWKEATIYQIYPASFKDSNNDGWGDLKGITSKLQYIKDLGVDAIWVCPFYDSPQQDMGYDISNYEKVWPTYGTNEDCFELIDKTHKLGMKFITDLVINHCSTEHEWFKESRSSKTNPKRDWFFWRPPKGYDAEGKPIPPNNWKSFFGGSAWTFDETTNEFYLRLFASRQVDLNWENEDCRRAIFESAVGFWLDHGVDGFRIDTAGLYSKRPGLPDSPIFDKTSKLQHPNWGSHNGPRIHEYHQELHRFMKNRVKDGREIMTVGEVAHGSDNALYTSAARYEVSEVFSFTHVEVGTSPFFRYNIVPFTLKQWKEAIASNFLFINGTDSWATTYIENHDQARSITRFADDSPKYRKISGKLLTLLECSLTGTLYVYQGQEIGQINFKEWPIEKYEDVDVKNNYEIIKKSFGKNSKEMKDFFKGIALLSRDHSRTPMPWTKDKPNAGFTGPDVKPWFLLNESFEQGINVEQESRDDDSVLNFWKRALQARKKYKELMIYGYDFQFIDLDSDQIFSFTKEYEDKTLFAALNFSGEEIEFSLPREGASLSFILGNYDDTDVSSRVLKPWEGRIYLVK

One may read the IC50 as the concentration that gives 50% inhibition. Take `O=C(O)[C@H]1O[C@@H](Oc2c(-c3ccc(O)c(O)c3)oc3cc(O)cc(O)c3c2=O)[C@H](O)[C@@H](O)[C@@H]1O` [Compound 2, quercetin-3-O-β-D-glucuronic acid]: the IC50 came out at 545 µM in experiment [1] (setting [6]), 262 µM in experiment [2] and 1880 µM in experiment [3]. In experiment [4], the FRAP was 0.727±0.021 mM AAE/mg and 0.73 mM AAE/mg. Moreover, the ORAC assay in experiment [5] was 0.739±0.098 mM TE/mg and 0.74 mM TE/mg.
As for `O=c1cc(-c2ccc(O)cc2)oc2cc(O[C@@H]3O[C@H](CO)[C@@H](O)[C@H](O)[C@H]3O)cc(O)c12` [Compound 1, apeginin-7-O-β-D-glucoside], the IC50 in experiment [1] came out at 408 µM; in experiment [2] it was 303 µM; in experiment [3], 668 µM. In addition, the FRAP in experiment [4] was 0.225±0.003 mM AAE/mg and 0.23 mM AAE/mg. In addition, the ORAC assay in experiment [5] is 1.092±0.067 mM TE/mg and 1.09 mM TE/mg.
As to `O=C(O)[C@H]1O[C@@H](Oc2c(-c3ccc(O)c(O)c3)oc3cc(O)cc(O)c3c2=O)[C@H](O)[C@@H](O)[C@H]1O` [Compound 3, quercetin-3-O-β-D-galacturonic acid], the IC50 in experiment [1] (setting [6]) is 385 µM; in experiment [2] it was 500 µM; in experiment [3], greater than 1200 µM. The FRAP in experiment [4] is 0.494±0.066 mM AAE/mg and 0.49 mM AAE/mg. Moreover, in experiment [5], the ORAC assay is 0.538±0.015 mM TE/mg and 0.54 mM TE/mg.
For `C[C@@H]1O[C@@H](OC[C@H]2O[C@@H](Oc3c(-c4ccc(O)c(O)c4)oc4cc(O)cc(O)c4c3=O)[C@H](O)[C@@H](O)[C@@H]2O)[C@H](O)[C@H](O)[C@H]1O` [Compound 4, rutin], the values for the concentration for half-maximal inhibition (IC50) in experiment [1], in experiment [2] and in experiment [3] were 754 µM, 37 µM and 493 µM, respectively. Also, in experiment [4], the FRAP is 2.658±0.168 mM AAE/mg and 2.66 mM AAE/mg. Further, the ORAC assay in experiment [5] is 2.164±0.096 mM TE/mg and 2.16 mM TE/mg.
As for `O=C(OC[C@H]1O[C@H](OC(=O)c2cc(O)c(O)c(O)c2)[C@H](O)[C@@H](OC(=O)c2cc(O)c(O)c(O)c2)[C@@H]1O)c1cc(O)c(O)c(O)c1` (stereo in doubt) [Compound 5, 1,3,6-trigalloyl glucose], the IC50 was 4.5 µM in experiment [1] (setting [6]), 35 µM in experiment [2] and 657 µM in experiment [3]. The FRAP in experiment [4] is 7.228±0.279 mM AAE/mg and 7.23 mM AAE/mg. Besides, the ORAC assay in experiment [5] was 1.119±0.116 mM TE/mg and 1.11 mM TE/mg.

These data come from publication PMC9139161, “Phenolics from Chrozophora oblongifolia Aerial Parts as Inhibitors of α-Glucosidases and Advanced Glycation End Products: In-Vitro Assessment, Molecular Docking and Dynamics Studies” (Biology, 2022).
